Values of other authors as cited in patent US20070135454A1, “Bicyclic pyrimidin-4(3h)-ones and analogues and derivatives thereof which modulate the function of the vanilloid-1-receptor(vr1)” (priority 2003, published 2007).

Molecular target: VR1 (Rattus norvegicus, UniProt O35433)
Conditions: Wahl et al., Mol. Pharmacol, 59:9, 2001

Chain of VR1 (O35433 whole entry): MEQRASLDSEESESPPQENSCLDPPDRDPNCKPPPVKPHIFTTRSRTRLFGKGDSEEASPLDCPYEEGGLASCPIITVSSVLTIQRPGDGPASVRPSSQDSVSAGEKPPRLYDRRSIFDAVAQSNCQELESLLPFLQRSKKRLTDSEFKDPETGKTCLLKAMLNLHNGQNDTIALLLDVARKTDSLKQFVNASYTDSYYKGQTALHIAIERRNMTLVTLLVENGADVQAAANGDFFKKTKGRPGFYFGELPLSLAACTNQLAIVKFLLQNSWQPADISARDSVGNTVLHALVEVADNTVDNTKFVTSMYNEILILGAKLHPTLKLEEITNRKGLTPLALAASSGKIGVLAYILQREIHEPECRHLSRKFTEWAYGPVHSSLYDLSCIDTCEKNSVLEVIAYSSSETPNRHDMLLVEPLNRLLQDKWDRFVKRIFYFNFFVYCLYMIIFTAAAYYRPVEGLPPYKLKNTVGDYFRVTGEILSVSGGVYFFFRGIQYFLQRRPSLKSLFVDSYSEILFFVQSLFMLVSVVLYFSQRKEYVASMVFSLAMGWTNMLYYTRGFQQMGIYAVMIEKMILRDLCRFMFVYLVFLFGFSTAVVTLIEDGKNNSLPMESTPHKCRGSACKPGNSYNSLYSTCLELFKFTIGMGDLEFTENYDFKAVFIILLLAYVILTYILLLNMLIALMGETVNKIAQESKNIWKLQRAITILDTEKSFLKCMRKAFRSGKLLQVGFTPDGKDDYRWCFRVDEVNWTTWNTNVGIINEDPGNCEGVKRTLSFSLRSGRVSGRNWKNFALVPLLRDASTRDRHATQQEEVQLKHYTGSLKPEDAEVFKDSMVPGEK

## C=C(C)[C@]12C[C@@H](C)[C@@]34O[C@](Cc5ccccc5)(O[C@@H]1[C@@H]3C=C(COC(=O)Cc1cc(I)c(O)c(OC)c1)C[C@]1(O)C(=O)C(C)=C[C@@H]41)O2 [Iodo-resiniferatoxin]
  antagonist of VR1 (potency in words): nanomolar antagonist of VR1
